Data on 1 compound can be found in patent US20230046617A1, “METHOD FOR PROMOTING EXPANSION OF HEMATOPOIETIC STEM CELLS AND AGENT FOR USE IN THE METHOD” (FARON PHARMACEUTICALS OY, priority 2020, published 2023).

Assay [1] has as its system human CD45+ cells engraftment in the BM of NBSGW mice. As to the kind of experiment: In vivo engraftment of sorted human BM cells in non-irradiated NBSGW mice. As to conditions: VAP-1+ cells in the transfer pool; inhibitor 10 mg/kg i.p. three times a week for six weeks; cut-off 0.1% human CD45+. The text has this:
Human fresh frozen BM CD34+ cells (LONZA) were thawed and stained with APC conjugated mouse anti-Lineage cocktail, PE-Cy7-conjugated anti-CD34 and FITC-conjugated monoclonal antibodies 1B2, TK8-14, and JG-2 against different epitopes of human VAP-1. For batch cell sorting of VAP-1^+/lo and VAP-1^− cells we used a Sony SH800 cell sorter with class A2 Level II biosafety cabinet using 130 μm microfluidic sorting chips. The NBSGW (immune-deficient, c-Kit-deficient) mice not needing irradiation to accept human cells were used as […]. In the VAP-1^− group 19000 cells and in the VAP-1−+VAP-1^+/lo group 16250 VAP-1^− cells and 2750 VAP-1^+/lo cells were intravenously injected per animal. […] Samples were run on LSR fortessa and the data was analyzed with FlowJo. Percentage of chimerism [% chimerism=(% test donor-derived cells)×100/((% test donor-derived cells+(% competitor-derived cells))] was calculated as described (Ema et al., “Adult mouse hematopoietic stem cells: purification and single-cell assays”, Nat Protoc 2006 1(6), 2979-2987).

Assay [2] deals with human BM-derived CD34+ cells. As to the kind of experiment: CFU assay of human BM-derived CD34+ cells with replating. The following applies: LJP-1586 0.5 μM. The assay is classed as cell-based. The procedure:
(§1) The progeny of 900 CD38^−CD34^+ cells collected from 15-day-old in vitro cultures, obtained as described above, were grown in methylcellulose-based medium (H4436, STEMCELL Technologies) containing or lacking LJP-1586. After 14 days, single, multilineage, and mixed colonies were visually scored by microscopy. Cryopreserved human CD34^+ cells from AllCells were thawed, resuspended, and counted according to the manufacturer's protocol. Five hundred thawed human BM CD34^+ cells were cultured in complete methylcellulose-based medium (H4436, STEMCELL Technologies) containning or lacking LJP-1586. The total number of colonies was counted at 14 days after plating. Replating was performed twice by harvesting and dissociating cells under sterile conditions.

Assay [3] concerns human umbilical CB-derived HSCs (CD34+CD38-). Description: Liquid culture expansion of umbilical cord blood derived HSCs. The assay is classed as cell-based. The procedure: For human umbilical CB cells, an antibody-based EasySep kit was used to enrich CD34^+CB cells, which were subsequently stained with anti-CD38 and anti-CD34 antibodies. CD38^−CD34^+ cells were sorted using a FACSAria Ilu instrument (BD Biosciences) and then cultured in StemSpan SFEM medium II (STEMCELL Technologies) containing human stem cell factor (100 ng/ml), FMS-like tyrosine kinase 3 ligand (100 ng/ml), and thrombopoietin (50 ng/ml) (all from Peprotech). Cells were seeded at a density of 1×10^3 per ml. LJP-1586 was added immediately after plating when indicated. Cultures were maintained for 21 days, and half the medium was replaced by that containing the same cytokines and LJP-1586 on days 5, 8, 12, 15, and 18. CD34^+ cells from human umbilical CB were isolated via a two-step procedure using Ficoll-Plaque gradient centrifugation (Amersham Pharmacia Biotech, Uppsala, Sweden) and an EasySep Human Cord Blood CD34 Positive Selection Kit II (STEMCELL Technologies). For batch and single cell sorting of VAP-1^+ and VAP-1^− cells from CB we used a Sony SH800 cell sorter with class A2 Level II biosafety cabinet using 130 μm microfluidic sorting chips. This sorter applies low shear stress on cells allowing better survival during cell culture. CD34^+ cells were also sorted into VAP-1^+ and VAP-1^−HSCs (Lineage-CD34+CD38). From these, 100 VAP-1+ and VAP-1−HSCs were then cultured in StemSpan SFEM medium II (STEMCELL Technologies) containing human stem cell factor (100 ng/ml), FMS-like tyrosine kinase 3 ligand (100 ng/ml), and thrombopoietin (50 ng/ml) (all from Peprotech). LJP-1586 was added immediately after plating at a concentration of 1 μM. Cultures were maintained for 20 days. Fresh medium containing the same cytokines and LJP-1586 was added on days 5, 8, 10, 12, 15 and 18. The cells were analysed on days 10 and 15 for CD38−CD34+CD45RA−CD90+ expression using LSR Fortessa instrument (BD Biosciences). Alternatively, a VAP-1 inhibitor szTU73 was used in CB cultures at concentrations 1, 5 and 10 micromolar.

The test system of assay [4] is ROS in human CD34+ BM cells (CD38-CD34+ gated). As to the kind of experiment: ROS production (oxidative burst) by DHR-123 and flow cytometry. In kind it is cell-based. The following applies: 9-day liquid cultures, PMA activation, bone marrow derived HSCs. The procedure:
Human CD34^+BM cells were liquid cultured for nine days in StemSpan SFEM medium II (STEMCELL Technologies) containing human stem cell factor (100 ng/ml), FMS-like tyrosine kinase 3 ligand (100 ng/ml), and thrombopoietin (50 ng/ml) (all from Peprotech) with or without LJP-1586. After nine days, the cells were stained with anti-CD38 and anti-CD34 antibodies, washed using DMEM, centrifuged and resuspended in 100 μl DMEM. Then, ROS were detected by DHR-123 reagent (Molecular Probes). For this, DHR-123 was diluted in DMSO and kept as a 5 mM stock solution at −20° C. for single use. […] The cells were then incubated for 10 min at 37° C. and followed by activation with Phorbol 12-myristate 13-acetate (PMA) (Sigma-Aldrich. The stock solution of PMA was frozen at 1 mg/ml in DMSO, freshly thawed and diluted 500 times in order to add 12.5 μl to a final concentration of 200 ng/ml. After 20 min at 37° C., the cells were washed with PBS, resuspended and analyzed by flow cytometry. The red DHR123 turns to green after oxidation. CD38^− and CD34^+ positive cells were gated and fluorescence intensity of oxidized DHR-123 was measured from the filter channel 530 nm/30 nm using LSR Fortessa instrument (BD Biosciences) and analyzed by FlowJo software (Tree Star).
On the technique in general: A flow cytometer gives signals particle by particle.

The test system of another assay is CB-derived HSCs. Description: CFU assay of CB-derived cells expanded in liquid culture. The assay is classed as cell-based, human. As to conditions: after 15 days liquid culture with LJP-1586 (0.5 μM), then CFU assay with LJP-1586. The procedure:
as §1

With `COc1ccc(C/C(=C/F)CN)cc1.Cl` [LJP-1586, Z-3-fluoro-2-(4-methoxybenzyl)allylamine hydrochloride], in assay [1], the “mice that accepted the human BM engraftment” value is 3/3. The “number of CFUs higher than control cultures after re-plating” value in assay [2] (after dissociating and re-plating twice) is 92%. In addition, the “number of CFUs higher than control cultures” value in assay [2] (first plating, 500 BM CD34+ cells) came out at 33%. Besides, the “number of primitive HSCs (CD34+CD38-CD45RA-CD90+CD49f+) compared to non-treated cultures” value in assay [3] (1 μM, 15 days, average of three donors) is 11 times. In assay [3] (1 μM, grown for 18 days), the “HSC expansion compared to control cells” value was “more than 31 times”. For the same compound, the “share of HSCs in gate P-3 that were primitive HSCs” value in assay [3] (CD34+CD38-CD45RA-CD90+CD49f+) is given as “More than 12%”. Moreover, the “expansion of VAP-1+ HSCs in long term liquid cultures” value in assay [3] (day 20, 1 μM) is on record as “boosted their expansion”. The “expansion of HSCs at other concentrations” value in assay [3] (higher or lower concentrations than 1 μM) is given as “less efficient”. For the same compound, the “ROS reduction (MFI) compared to control cells” value in assay [4] is reported as 62%. Moreover, in the assay with CB-derived HSCs, the “number of CFUs compared to control cultures” value is on record as 7.9 times.
